In data set [1] the target is T1, Mannose-6-phosphate isomerase (Homo sapiens, UniProt P34949).
T1 sequence (P34949 whole entry): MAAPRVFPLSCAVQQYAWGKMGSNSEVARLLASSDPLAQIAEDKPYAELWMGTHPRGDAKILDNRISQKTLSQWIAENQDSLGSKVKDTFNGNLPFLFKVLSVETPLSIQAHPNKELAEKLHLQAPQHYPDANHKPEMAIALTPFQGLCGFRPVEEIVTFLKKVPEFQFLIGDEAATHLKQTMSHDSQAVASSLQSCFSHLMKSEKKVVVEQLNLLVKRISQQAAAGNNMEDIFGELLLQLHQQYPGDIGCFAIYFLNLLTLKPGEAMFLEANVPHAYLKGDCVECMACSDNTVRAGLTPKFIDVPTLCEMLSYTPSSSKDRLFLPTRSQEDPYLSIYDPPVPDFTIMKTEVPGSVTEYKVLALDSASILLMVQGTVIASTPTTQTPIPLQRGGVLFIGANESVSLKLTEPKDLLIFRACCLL
Nature of the data set: phosphomannose isomerase inhibition – biochemical, fluorescence intensity, confirmation (AID 1535).

The next data set addresses T2, Phosphomannomutase 2 (Homo sapiens, UniProt O15305).
T2 sequence (O15305 whole entry): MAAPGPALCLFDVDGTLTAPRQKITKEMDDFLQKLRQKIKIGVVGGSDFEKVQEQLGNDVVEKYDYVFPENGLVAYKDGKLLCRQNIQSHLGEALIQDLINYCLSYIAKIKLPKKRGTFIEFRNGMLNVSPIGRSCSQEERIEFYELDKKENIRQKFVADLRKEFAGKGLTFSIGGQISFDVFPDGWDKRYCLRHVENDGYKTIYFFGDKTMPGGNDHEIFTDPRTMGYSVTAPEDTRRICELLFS
Briefly: Counter screen SAR assay for PMM2 inhibitors via a fluorescence intensity assay. [Related pubchem assays (depositor defined):AID1545, AID1574]. For orientation: The purpose of a counterscreen is to sort out artefacts and off-target activity.

Data set [2] deals with T3, Ubiquitin-conjugating enzyme E2 N (Homo sapiens, UniProt P61088).
T3 sequence (P61088 whole entry): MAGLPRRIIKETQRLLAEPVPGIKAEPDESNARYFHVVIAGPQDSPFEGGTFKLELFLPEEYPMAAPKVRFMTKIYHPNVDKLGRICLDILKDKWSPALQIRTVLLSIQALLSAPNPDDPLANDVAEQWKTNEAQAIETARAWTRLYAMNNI
Type of data set: functional.

Data set [3] addresses T3, Ubiquitin-conjugating enzyme E2 N. It counts as functional. This is another data set of the same source.
Another data set concerns the target T4, Bcl-2-related protein A1 (Mus musculus, UniProt Q07440).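 Further: confirmatory dose–response counterscreen on Bfl-1, used to check hits from a UBC13 polyubiquitin inhibitor campaign.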
T4 sequence (Q07440 whole entry): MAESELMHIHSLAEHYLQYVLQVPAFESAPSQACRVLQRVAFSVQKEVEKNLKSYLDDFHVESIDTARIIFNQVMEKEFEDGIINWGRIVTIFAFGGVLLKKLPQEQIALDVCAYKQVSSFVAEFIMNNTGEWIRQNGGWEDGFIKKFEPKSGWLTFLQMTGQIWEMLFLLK
Type of data set: functional.

For another data set, the target named is T5, Protein RecA (Mycobacterium tuberculosis, UniProt P9WHJ3).
T5 sequence (P9WHJ3 whole entry): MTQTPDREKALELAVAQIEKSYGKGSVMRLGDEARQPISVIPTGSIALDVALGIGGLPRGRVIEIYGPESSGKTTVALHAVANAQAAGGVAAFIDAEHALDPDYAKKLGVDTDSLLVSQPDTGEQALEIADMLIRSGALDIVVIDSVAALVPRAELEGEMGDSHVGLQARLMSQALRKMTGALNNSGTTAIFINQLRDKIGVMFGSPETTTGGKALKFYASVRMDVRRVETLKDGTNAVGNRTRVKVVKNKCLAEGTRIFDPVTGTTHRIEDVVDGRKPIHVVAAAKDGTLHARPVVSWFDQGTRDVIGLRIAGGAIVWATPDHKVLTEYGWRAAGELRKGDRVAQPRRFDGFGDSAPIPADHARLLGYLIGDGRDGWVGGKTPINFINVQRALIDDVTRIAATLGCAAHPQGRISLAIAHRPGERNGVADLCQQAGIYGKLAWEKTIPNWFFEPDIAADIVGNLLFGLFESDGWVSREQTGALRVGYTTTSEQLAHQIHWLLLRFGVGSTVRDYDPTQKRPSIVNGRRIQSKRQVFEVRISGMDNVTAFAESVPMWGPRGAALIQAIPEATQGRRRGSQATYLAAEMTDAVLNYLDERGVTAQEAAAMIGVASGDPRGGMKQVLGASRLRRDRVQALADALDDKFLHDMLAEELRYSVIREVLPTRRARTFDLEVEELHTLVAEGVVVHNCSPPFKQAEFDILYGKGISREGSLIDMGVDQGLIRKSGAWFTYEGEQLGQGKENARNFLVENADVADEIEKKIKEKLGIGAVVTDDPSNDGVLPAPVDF
Nature of the data set: Fluorescence Cell-Free Homogeneous Dose Retest to Identify Inhibitors of RecA-Intein Splicing Activity. [Related pubchem assays (depositor defined):AID2097, AID2223, AID489010, AID492950]. It counts as functional.

Data set [4] has as its target G-protein coupled receptor 55 (Homo sapiens, UniProt Q9Y2T6). Briefly: blockers of GPR55 signalling, imaged – imaging, image-based, counter-screen for GPR35 antagonist project, SAR follow-up (AID 2397). It counts as functional.
Data set [5] in a line: viability of uninfected HEp-2 cells – cell-based, HTS, cytotoxicity control for RSV inhibitor project, dose response (AID 2410). It counts as functional. Conditions: human respiratory syncytial virus.
For data set [6], the target named is T6, Replicative DNA helicase DnaB (Mycobacterium tuberculosis, UniProt P9WMR3).
T6 sequence (P9WMR3 whole entry): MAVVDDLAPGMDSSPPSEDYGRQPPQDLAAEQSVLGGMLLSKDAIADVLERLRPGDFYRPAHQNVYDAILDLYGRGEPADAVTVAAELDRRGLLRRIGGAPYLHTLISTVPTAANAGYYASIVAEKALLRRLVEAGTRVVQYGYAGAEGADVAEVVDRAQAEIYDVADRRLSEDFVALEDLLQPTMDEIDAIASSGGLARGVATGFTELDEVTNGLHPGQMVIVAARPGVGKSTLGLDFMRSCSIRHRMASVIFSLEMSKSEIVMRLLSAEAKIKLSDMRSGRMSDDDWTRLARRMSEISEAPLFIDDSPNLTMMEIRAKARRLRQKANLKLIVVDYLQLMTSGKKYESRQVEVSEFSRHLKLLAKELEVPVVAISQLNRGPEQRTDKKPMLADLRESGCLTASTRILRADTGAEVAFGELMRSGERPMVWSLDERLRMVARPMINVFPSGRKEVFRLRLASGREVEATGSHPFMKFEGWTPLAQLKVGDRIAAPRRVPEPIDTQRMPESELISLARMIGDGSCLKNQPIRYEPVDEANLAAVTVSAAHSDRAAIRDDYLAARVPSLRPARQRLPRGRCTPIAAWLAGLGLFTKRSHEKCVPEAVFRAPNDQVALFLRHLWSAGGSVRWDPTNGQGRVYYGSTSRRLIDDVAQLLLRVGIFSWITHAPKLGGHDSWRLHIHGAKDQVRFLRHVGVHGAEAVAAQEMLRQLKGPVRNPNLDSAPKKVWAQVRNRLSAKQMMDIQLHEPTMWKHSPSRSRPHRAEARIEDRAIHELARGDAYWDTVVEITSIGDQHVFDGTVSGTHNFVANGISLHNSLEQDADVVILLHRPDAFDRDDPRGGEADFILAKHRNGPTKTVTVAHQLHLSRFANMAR
Nature of the data set: DnaB intein splicing inhibitors, dose response, biochemical, cell-free fluorescence (AID 449749). Type of data set: functional.

Data set [7] addresses E3 ubiquitin-protein ligase XIAP (Homo sapiens, UniProt P98170). Briefly: Counter Screen using XIAP-Bir3 for Chemical Antagonists of Bir1/2 domains of IAP-family anti-apoptotic proteins. [Related pubchem assays (depositor defined):AID1018, AID1449, AID1514, AID1638, AID1749, AID1750, AID488957, AID488963].
Another data set deals with Cytochrome P450 2D6 (Homo sapiens, UniProt P10635).
Cytochrome P450 2D6, sequence (P10635 whole entry): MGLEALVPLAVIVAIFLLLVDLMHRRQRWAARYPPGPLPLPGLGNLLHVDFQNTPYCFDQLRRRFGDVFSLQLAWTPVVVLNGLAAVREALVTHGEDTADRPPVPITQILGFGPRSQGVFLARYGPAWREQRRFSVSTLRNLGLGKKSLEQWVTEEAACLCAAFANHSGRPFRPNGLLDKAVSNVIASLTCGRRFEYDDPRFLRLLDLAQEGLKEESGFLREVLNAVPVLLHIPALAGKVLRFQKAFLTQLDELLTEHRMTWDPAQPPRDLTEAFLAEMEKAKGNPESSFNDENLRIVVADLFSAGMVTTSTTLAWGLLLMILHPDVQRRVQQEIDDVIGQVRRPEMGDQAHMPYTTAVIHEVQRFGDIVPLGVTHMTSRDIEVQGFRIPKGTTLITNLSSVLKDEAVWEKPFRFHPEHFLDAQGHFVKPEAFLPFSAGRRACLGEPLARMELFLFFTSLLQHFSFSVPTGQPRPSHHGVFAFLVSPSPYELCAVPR
A further data set addresses T7, Cytochrome P450 1A2 (Homo sapiens, UniProt P05177).
T7 sequence (P05177 whole entry): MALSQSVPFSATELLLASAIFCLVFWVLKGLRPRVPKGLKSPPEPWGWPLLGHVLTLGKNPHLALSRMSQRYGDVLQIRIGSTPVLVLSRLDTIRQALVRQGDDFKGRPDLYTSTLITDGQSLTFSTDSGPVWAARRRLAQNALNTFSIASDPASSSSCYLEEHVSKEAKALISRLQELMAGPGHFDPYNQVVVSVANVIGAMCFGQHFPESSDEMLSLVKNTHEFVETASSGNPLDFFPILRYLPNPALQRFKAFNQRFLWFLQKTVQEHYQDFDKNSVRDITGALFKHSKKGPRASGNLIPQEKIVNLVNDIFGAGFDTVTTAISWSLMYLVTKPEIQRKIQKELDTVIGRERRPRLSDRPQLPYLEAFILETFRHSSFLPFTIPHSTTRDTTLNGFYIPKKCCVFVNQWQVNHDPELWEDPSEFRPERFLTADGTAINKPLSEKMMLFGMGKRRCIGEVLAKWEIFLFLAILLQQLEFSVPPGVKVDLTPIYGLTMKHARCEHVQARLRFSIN

For the next data set, the target named is Cytochrome P450 2C9 (Homo sapiens, UniProt P11712).
Cytochrome P450 2C9, sequence (P11712 whole entry): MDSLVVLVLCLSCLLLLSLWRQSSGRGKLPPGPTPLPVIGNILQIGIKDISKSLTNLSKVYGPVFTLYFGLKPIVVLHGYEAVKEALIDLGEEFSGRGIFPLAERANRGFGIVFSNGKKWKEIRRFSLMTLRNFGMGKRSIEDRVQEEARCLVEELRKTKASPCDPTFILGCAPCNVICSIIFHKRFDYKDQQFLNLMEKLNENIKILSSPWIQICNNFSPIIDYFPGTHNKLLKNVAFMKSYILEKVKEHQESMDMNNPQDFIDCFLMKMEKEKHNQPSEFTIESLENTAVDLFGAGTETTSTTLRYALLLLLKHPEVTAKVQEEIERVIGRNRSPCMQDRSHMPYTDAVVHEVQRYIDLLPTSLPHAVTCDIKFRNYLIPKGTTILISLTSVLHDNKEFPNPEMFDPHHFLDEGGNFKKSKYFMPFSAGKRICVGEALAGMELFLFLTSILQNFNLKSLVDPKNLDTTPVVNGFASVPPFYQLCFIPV
In data set [8] the target is T8, Voltage-gated N-type calcium channel alpha-1B subunit/Amyloid beta A4 precursor protein-binding family A member 1 (Homo sapiens, UniProt Q00975+Q02410). It counts as protein assay.
T8 sequence (Q00975 whole entry): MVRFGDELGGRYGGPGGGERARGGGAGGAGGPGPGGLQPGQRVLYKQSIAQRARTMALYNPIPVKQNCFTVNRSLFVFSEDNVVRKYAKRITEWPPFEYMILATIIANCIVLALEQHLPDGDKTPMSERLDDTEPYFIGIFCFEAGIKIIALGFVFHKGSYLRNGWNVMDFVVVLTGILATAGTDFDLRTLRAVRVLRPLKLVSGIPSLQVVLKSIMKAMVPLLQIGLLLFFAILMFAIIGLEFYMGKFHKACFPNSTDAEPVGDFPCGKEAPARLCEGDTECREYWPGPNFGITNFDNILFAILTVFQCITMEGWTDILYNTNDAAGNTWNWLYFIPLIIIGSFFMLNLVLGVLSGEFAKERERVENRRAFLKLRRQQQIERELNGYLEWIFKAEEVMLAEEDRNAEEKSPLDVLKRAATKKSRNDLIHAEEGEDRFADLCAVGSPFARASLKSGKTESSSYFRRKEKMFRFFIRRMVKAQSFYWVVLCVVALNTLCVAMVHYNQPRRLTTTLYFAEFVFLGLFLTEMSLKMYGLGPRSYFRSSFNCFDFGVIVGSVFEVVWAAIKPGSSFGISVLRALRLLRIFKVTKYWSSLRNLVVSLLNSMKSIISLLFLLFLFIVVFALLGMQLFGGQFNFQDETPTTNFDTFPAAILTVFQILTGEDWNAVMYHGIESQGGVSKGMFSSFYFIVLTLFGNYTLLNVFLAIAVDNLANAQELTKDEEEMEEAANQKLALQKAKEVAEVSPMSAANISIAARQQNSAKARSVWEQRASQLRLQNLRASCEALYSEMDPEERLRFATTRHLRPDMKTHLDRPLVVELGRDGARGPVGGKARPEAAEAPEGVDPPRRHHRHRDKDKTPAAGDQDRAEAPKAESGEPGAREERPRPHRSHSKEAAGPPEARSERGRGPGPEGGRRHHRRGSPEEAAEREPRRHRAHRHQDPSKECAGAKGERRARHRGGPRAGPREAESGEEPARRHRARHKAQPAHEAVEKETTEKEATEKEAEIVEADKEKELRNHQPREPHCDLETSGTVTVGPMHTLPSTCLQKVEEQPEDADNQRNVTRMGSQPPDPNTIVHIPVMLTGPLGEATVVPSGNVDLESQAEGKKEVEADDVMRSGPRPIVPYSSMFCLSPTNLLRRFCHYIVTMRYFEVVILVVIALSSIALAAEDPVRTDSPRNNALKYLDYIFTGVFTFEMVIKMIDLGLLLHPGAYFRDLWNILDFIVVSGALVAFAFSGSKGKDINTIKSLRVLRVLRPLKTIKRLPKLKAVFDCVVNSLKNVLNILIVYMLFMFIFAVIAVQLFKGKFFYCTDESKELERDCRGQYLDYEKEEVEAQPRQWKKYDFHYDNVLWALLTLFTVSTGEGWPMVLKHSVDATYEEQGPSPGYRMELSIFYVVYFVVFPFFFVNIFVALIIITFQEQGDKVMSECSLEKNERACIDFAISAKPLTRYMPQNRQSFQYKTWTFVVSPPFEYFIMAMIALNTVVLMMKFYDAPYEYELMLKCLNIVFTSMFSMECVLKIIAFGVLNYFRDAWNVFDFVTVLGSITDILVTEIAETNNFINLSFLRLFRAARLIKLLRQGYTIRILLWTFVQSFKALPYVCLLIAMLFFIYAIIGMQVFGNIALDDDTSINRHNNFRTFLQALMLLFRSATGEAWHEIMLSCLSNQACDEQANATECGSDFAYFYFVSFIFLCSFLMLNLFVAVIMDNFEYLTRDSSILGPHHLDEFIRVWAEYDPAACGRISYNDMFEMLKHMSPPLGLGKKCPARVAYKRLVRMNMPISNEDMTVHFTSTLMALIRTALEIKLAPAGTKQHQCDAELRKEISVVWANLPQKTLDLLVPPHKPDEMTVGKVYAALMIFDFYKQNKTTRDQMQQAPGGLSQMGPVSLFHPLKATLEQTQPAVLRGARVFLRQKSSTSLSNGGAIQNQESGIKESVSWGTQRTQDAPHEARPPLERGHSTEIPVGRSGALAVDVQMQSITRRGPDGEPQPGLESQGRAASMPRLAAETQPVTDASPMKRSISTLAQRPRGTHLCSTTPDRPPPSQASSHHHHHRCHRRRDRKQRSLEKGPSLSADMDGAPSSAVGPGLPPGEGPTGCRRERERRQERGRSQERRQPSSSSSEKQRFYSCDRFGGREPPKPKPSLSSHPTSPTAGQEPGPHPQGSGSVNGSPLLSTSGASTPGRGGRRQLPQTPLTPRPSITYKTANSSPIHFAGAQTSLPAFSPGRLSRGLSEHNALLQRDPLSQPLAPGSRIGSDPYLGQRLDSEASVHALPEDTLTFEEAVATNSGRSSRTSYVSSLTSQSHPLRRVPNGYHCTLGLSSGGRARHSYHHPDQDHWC
T8 sequence (Q02410 whole entry): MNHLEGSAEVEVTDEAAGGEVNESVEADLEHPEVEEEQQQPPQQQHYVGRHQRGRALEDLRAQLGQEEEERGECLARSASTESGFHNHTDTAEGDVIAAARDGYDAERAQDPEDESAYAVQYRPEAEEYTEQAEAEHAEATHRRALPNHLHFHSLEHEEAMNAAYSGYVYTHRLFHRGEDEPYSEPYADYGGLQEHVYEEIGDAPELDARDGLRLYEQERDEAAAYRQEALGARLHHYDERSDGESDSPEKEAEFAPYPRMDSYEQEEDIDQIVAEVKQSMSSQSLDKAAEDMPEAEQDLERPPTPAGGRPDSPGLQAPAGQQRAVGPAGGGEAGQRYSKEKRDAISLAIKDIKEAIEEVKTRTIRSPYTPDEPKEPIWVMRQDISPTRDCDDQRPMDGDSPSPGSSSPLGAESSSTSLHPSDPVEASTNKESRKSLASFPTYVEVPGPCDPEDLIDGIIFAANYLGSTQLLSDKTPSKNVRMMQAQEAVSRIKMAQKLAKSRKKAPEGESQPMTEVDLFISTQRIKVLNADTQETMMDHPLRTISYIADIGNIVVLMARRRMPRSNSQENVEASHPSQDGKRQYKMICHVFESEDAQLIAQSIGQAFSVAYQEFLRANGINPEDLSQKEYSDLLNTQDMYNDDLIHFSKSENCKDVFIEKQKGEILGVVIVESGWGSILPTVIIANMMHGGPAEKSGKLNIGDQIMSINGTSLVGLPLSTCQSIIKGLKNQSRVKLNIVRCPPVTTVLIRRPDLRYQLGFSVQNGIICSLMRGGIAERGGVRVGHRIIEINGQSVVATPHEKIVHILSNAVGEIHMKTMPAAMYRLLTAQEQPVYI
The target in data set [9] is T8, Voltage-gated N-type calcium channel alpha-1B subunit/Amyloid beta A4 precursor protein-binding family A member 1. Type of data set: protein assay. This is another data set of the same source.
A further data set has as its target T9, Leucine aminopeptidase (Plasmodium falciparum 3D7, UniProt Q8IL11).
T9 sequence (Q8IL11 whole entry): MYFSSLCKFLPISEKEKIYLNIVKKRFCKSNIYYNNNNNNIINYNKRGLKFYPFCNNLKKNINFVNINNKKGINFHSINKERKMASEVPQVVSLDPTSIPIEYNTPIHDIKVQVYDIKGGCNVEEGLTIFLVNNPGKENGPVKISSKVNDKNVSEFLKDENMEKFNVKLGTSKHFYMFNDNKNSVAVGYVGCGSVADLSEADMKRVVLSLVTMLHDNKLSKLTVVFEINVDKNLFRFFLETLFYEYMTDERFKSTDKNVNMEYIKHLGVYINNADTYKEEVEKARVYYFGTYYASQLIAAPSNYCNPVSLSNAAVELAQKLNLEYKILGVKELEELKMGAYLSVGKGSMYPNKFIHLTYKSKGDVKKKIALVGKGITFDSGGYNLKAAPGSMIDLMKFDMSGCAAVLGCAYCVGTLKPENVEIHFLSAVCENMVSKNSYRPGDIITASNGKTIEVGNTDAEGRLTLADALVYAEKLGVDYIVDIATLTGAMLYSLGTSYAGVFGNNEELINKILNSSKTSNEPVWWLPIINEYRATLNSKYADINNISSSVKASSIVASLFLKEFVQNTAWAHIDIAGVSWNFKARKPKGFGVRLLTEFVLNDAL
Nature of the data set: P. falciparum M17LAP inhibitors, primary screen, biochemical, fluorogenic H-Leu-NHMec substrate, 1536-well (AID 1619). It counts as functional.

The target in data set [10] is DNA dC->dU-editing enzyme APOBEC-3A (Homo sapiens, UniProt P31941). Briefly: A3A deaminase inhibition for selectivity – biochemical, dose response (AID 504722). It counts as functional.
Data set [11] deals with DNA dC->dU-editing enzyme APOBEC-3G (Homo sapiens, UniProt Q9HC16). Nature of the data set: Dose Response confirmation of small molecule APOBEC3G DNA Deaminase Inhibitors via a fluorescence-based single-stranded DNA deaminase assay. [Related pubchem assays (depositor defined):AID493012, AID493028]. Type of data set: functional.
The target in the next data set is Cytochrome P450 2C19 (Homo sapiens, UniProt P33261). Nature of the data set: Cytochrome panel assay with activity outcomes. Panel member name: p450-cyp2c19 Compounds with AC50 equal or less than 10 uM are considered active. It counts as functional. Conditions: read-out: AC50.
Cytochrome P450 2C19, sequence (P33261 whole entry): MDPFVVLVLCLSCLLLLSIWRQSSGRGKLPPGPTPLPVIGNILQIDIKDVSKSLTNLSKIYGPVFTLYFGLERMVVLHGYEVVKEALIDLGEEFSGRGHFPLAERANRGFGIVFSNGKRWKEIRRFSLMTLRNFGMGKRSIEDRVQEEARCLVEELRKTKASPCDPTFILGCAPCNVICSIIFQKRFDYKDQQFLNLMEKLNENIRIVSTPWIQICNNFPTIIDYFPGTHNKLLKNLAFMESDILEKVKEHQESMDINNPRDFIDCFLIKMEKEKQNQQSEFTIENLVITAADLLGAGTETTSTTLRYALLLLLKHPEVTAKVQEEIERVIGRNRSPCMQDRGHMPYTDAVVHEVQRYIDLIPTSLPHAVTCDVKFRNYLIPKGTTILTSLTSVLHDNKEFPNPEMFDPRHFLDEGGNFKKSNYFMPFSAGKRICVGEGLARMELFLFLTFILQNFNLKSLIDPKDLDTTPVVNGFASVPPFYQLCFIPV

SMILES strings stand for the structures. Active and inactive are the calls of the source.

G-protein coupled receptor 55, sequence (Q9Y2T6 whole entry): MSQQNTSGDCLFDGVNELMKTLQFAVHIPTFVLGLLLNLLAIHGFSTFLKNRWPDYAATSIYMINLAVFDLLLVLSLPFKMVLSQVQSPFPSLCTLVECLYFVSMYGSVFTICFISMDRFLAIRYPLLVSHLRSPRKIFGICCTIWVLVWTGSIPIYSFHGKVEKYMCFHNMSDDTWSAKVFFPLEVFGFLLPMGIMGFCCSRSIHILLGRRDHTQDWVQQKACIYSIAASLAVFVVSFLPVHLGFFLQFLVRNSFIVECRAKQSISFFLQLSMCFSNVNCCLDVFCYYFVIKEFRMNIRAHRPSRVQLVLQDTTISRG

In the case of `Cc1ccc(NP(=O)(c2ccccc2)c2nc3ccccc3s2)cc1` (stereo not drawn), the IC50 in data set [1] is > 50 µM (inactive); at Phosphomannomutase 2, > 100 µM (inactive).
Consider `CCN1C(=O)c2cccc3c(NC(=O)c4ccc(S(=O)(=O)N5CCOCC5)cc4)ccc1c23`, for which the IC50 in data set [2] was 9.74 µM (active); in data set [3] it was 10.4 µM (active); at Bcl-2-related protein A1, > 20 µM (inactive).
Consider `O=C(CCCN1C(=O)/C(=C\c2cccs2)SC1=S)Nc1ccc(O)cc1`, for which the EC50 on Protein RecA was 5.95 µM (active). The IC50 in data set [4] was 29.5 µM (inactive). Moreover, the CC50 in [5] was 12.5 µM (active). In addition, the AC50 in [6] is 2.19 µM (active).
Take `CCC(=O)NC(=S)NNC(=O)c1ccc(O)cc1`: the values for the IC50 (in [2]; in data set [3]; on Bcl-2-related protein A1) were 8.9 µM (active), 12.2 µM (active) and > 20 µM (inactive), respectively.
With `O=c1[nH]n(-c2ccc([N+](=O)[O-])cc2)c(=O)c2ccccc12`, in data set [7], the IC50 is > 20 µM (inactive).
As to `CC(C)NC(=O)C1CC(=O)N(c2ccc(F)c(Cl)c2)C1` (stereo not drawn), the AC50 is 14.1 µM (inconclusive) at Cytochrome P450 2D6, 2 µM (inconclusive) on Cytochrome P450 1A2 and “inconclusive” at Cytochrome P450 2C9.
With `CN(CCOC(=O)/C=C/c1ccco1)Cc1ccccc1`, the figures for the IC50 in data set [8] and in data set [9] were 18.5 µM (active) and 29.1 µM (active), respectively.
As for `CCOc1ccc(N2C(=O)CC(Sc3n[nH]c(-c4ccccc4)n3)C2=O)cc1` (stereo not drawn), the IC50 at Leucine aminopeptidase is 11.1 µM (active); in data set [10] it was > 100 µM (inactive); in data set [11], 14 µM (active).
Consider `COc1ccc(NC(=O)c2ccc(C)cc2Cl)c([N+](=O)[O-])c1`, for which the AC50 was 3.55 µM (inconclusive) on Cytochrome P450 2C19 and “inconclusive” at Cytochrome P450 2C9.

A word on the IC50: it is the midpoint of a concentration-inhibition curve. As a reminder, the EC50 is the midpoint of the concentration-response curve. In general, CC50 refers to the concentration that lowers cell viability or growth by half. A word on the AC50: it is the midpoint of the concentration-response curve, whichever way the signal moves.
